# Data reported in PMC13183915, “A platinum butterfly effect: small changes turn an anticancer drug into a non-toxic metalloantibiotic with in vivo efficacy” (npj Antimicrobials and Resistance, 2026).
# Legend:
# B. subtilis 168CA = assay: DiSC3(5)-based membrane potential measurement; type: cell-based, Bacillus subtilis; conditions: 3.125 µM Pt1, 25 µM Pt8
# Experimental: The membrane potential was measured according to Winkel et al. with minor modifications. B. subtilis 168CA was grown in LB containing 50 µg/mL bovine serum albumin (BSA). Cells were transferred to black 96-well polystyrene microtiter plates after reaching an OD600 of 0.3. DiSC3(5) was added to a final concentration of 1 µM, maintaining a constant concentration of 1% DMSO to avoid precipitation of the dye. After the fluorescence baseline had stabilized, antibiotic compounds were added, and measurements were continued for 30 min. Fluorescence was recorded at an excitation wavelength of 610–30 nm and an emission wavelength of 675–50 nm in a BMG Clariostar Plus plate reader.
# S. aureus ATCC 29213 = assay: Post antibiotic effect (PAE); type: cell-based; conditions: for Time for 1 log10 increase in bacterial cfu count: 1 h exposure
# Experimental: Post antibiotic effect (PAE) was determined as follows. […] Following incubation, cultures were centrifuged and washed twice with pre-warmed MHBII to remove any traces of antibiotics. Finally, cells were resuspended in drug-free MHBII and incubated further at 37 °C. Samples were taken every 1 h, serially diluted, and plated on tryptic soy agar (TSA) for enumeration of CFU. […] CFU observed immediately after the removal of the drug, and C in a similarly treated drug-free control.
smiles,measurement,setting,value
C1=C\CC/C=C\CC/1.[Cl][Pt][Cl] [Pt1],membrane depolarization (DiSC(3)5),B. subtilis 168CA,no membrane depolarization could be observed
same,PAE,S. aureus ATCC 29213; 1x MIC,~ 5.5 h
same,Time for 1 log10 increase in bacterial cfu count,S. aureus ATCC 29213; 1x MIC,~ 8 h
same,PAE,S. aureus ATCC 29213; 5x MIC,~ 5.5 h
same,Time for 1 log10 increase in bacterial cfu count,S. aureus ATCC 29213; 5x MIC,~ 8 h
same,PAE,S. aureus ATCC 29213; 10x MIC,~ 5.5 h
same,Time for 1 log10 increase in bacterial cfu count,S. aureus ATCC 29213; 10x MIC,~ 8 h
